These results are taken from patent US20210220376A1, “ADDICTION TREATMENT OF AN ALCOHOL-CONSUMING PATIENT POPULATION” (Amygdala Neurosciences, Inc., priority 2018, published 2021).

Each structure is given as a SMILES string. pIC50: −log10 of the molar value. Bounds are passed on as bounds.

For experiment [1], the target named is T1, hMAO-B (Homo sapiens, UniProt P27338).
T1 sequence (P27338 1-520): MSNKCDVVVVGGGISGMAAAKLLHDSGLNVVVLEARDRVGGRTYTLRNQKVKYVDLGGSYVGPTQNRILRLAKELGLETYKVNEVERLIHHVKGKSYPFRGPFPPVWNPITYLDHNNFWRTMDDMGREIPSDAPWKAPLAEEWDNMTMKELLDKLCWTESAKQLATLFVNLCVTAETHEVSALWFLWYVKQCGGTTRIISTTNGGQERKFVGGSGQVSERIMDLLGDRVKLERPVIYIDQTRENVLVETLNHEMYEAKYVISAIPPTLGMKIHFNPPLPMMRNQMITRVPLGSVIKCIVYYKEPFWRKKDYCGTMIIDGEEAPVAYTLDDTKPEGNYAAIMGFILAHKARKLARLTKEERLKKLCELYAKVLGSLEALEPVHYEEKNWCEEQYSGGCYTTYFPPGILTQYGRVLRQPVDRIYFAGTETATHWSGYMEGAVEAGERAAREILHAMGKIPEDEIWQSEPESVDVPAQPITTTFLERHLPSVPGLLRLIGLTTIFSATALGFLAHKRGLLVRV
The note with it: read-out: IC50 hMAO-B; cited from earlier work.

Experiment [2] deals with healthy male alcohol drinkers. The experiment in a line: Phase 1 study of compound (2) with ethanol: pharmacodynamics (mDEQ-5). The experiment is classed as in vivo, human. The text has this:
The exploratory pharmacodynamic endpoints included maximum effect (Emax), maximum change from baseline (CFBmax), time to Emax (TEmax), and time-averaged area under the effect curve (TA_AUE), as applicable, derived from Modified 5-item Drug Effects Questionnaire (mDEQ-5) scores.
mDEQ-5 scores were summarized by timepoint and treatment using descriptive statistics. Derived endpoints (Emax, CFBmax, TEmax, TA_AUE, as applicable) were summarized by treatment using descriptive statistics. For each mDEQ-5-derived endpoint, an analysis of variance (ANOVA) was conducted to compare each of active doses to placebo with dose group as a factor. Results were presented in terms of LSMEANS, treatment differences in LSMEANS, 95% CI and p-values.
Ethanol consumption and number of EtOH doses consumed (i.e., number of drinks) during the repeat EtOH administration sessions were summarized using descriptive statistics.

The target in experiment [3] is T2, hMAO-A (Homo sapiens, UniProt P21397).
T2 sequence (P21397 1-527): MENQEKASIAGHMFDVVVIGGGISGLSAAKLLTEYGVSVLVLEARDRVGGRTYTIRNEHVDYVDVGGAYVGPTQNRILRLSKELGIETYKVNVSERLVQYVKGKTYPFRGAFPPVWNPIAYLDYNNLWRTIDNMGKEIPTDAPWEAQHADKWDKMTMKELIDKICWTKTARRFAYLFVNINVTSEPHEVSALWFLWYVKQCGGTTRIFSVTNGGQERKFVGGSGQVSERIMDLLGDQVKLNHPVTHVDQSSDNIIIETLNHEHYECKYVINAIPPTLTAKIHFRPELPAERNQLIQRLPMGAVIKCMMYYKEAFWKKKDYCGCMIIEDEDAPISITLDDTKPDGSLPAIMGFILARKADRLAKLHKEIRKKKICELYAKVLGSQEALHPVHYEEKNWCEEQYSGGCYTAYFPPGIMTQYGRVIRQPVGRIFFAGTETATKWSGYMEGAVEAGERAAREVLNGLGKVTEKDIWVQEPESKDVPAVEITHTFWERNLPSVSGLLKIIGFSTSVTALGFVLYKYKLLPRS
The note with it: read-out: IC50 hMAO-A; cited from earlier work.

What is called pIC50 is the IC50 on a negative log10 scale, so that one unit is a factor of ten. In the case of `O=C(NCc1ccc(-c2ccn(COP(=O)(O)O)c(=O)c2)cc1)c1c(Cl)cccc1Cl` [Compound (2), phosphoric acid mono-(4-{4-[(2,6-dichloro-benzoylamino)-methyl]-phenyl}-2-oxo-2H-pyridin-1-ylmethyl) ester], the pIC50 in experiment [1] and in experiment [3] was less than 3.89 each time. Further, the “dose response on pharmacodynamic measures” value in experiment [2] (25-600 mg) is reported as “did not show a consistent dose response”. In addition, in experiment [2] (all dose levels vs placebo), the “peak VAS scores: feeling any alcohol effects, feeling drunk, liking the effects of alcohol” value is recorded as “Peak scores for placebo were higher than scores for all compound (2) dose levels”.
